Measurements as given in PMC7617456, “Cryptosporidium lysyl-tRNA synthetase inhibitors define the interplay between solubility and permeability required to achieve efficacy” (Science translational medicine, 2024).
Converted amounts (≈) assume the structure as drawn.

How the values were obtained:
[1] = system: KRS-OE; experiment: Transgenic C. parvum NanoLuciferase drug sensitivity assay, KRS-OE; type: cell-based; settings: Cryptosporidium parvum, HCT-8, 48 h, read-out: EC50, KRS-OE
[2] = Aqueous (kinetic) solubility by UHPLC; type: physicochemical; settings: 25 °C, aqueous buffer, kinetic from dmso stock, PBS pH 7.4, UHPLC
Description: As previously described.(27) […]
samples were prepared by adding 5 µL stock to PBS pH 7.4 (195 µL). This solution was mixed […]
The solubility test samples were […]
vacuum ﬁ ltered (Millipore Multiscreen HTS ﬁ lter, 96-well format) to remove any undissolved […]
material. The ﬁ ltrate was analyzed for dissolved drug compound using a truncated UHPLC […]
methodology. A calibration solution was prepared for each test compound. The 10 mM stock […]
solution was diluted in DMSO to give a 500 µM solution. This was further diluted with 50:50 […]
acetonitrile:water to give a 50 µM solution. Aliquots (0.2, 2.0, and 5.0 µL) of this 50 µM solution were injected onto the UHPLC system, and the areas of the resultant peaks were […]
integrated to produce a calibration line. Aliquots of the test sample ﬁ ltrate (0.4 and 5.0 µL) […]
were injected onto the UHPLC system and the resultant test compound peak areas quantiﬁ ed […]
using the calibration line. […]

[3] = system: wild type C. parvum; experiment: Neonatal calf efficacy model; type: in vivo; settings: for calves receiving treatment that shed Cryptosporidium after day 16 PI: 15 mg/kg BID 7 days, n=7; for Cryptosporidium shedding: 15 mg/kg BID oral 7 days from day 1 PI, to day 16 PI; for fecal scores: 15 mg/kg BID, 0 = normal, 3 = severe, treatment period
Description: Calves were enrolled at birth and challenged with wild type C. parvum oocysts (Fig. 5A). DDD489 and DDD508 were administered orally at 15 mg/kg BID for 7 days, beginning on day 1 PI. Blood was sampled and mean free plasma concentration was determined (Fig. S10). Fecal samples were collected from individual animals and parasite shedding was quantified (oocyst/g) by microscopy and quantitative PCR. Fecal samples were collected daily until day 21 PI to monitor for parasite recrudescence. To determine the impact of our late lead compounds on reducing symptoms of cryptosporidiosis, several clinical observations were scored throughout the study.
Calves (Holstein Friesian, British Blue Cross, Limousin Cross, or Aberdeen Angus Cross) were born at commercial dairy farms, provided a colostrum feed, and transported to Moredun Scientific. Calves were enrolled in the study if >30 kg at birth and in good health. Enrolment was staggered due to timing of births.
Calves were assigned to control or treatment groups (7 calves per group) and housed in separate barns (within each barn calves were housed in adjacent, individual pens). Male calves were used in the DDD489 study, and both male and female calves were used in the DDD508 study (control group: 3 females/4 males; treatment group: 2 females/5 males). Calves were challenged on day 1 post birth with 5x10^5 C. parvum oocysts by oral gavage (Sterling Labs for DDD489; Waterborne Inc. for DDD508).
Starting day 1 PI, vehicle (in 0.5% HPMC, 0.4% Tween 80, 0.5% Benzyl alcohol in sterile water) or treatment (DDD489 or DDD508) were administered by oral gavage twice daily immediately prior to milk feeds, and at least 8 hours apart (± 30 minutes). Vehicle was delivered at a set volume (22.6 ml per occasion) and test compound at 15 mg/kg (maximum volume of 20 ml per occasion; prepared in vehicle). Blood samples were collected from all animals prior to morning treatment on Day 1, then 5 (± 2) minutes, 15 (± 2) minutes, 30 (± 5) minutes, 1, 2, 4, 8 and 24 hours (± 10 minutes) post first daily dose. This sample schedule was repeated on Day 7 for the same animals. Blood samples were processed to plasma. Weight was measured and clinical observations recorded as indicated. Fecal samples were collected daily throughout the study. […]
was limited to staff involved in the study, and separate PPE was dedicated for use with each […]
Specified staff were involved in preparing the vehicle and treatment material and were not involved in its administration. These staff were not involved in taking and recording clinical observations or collecting samples. Staff that administered the vehicle and treatment materials were blinded to the material identity. If staff involved in administration of materials or sample collection became “unblinded” at any point in the study, they were immediately removed from […]
Quantification of Cryptosporidium shedding from calf samples (Moredun Scientific and […]
Oocyst per gram from calf fecal samples was determined by microscopy (performed at MRI) and by qPCR (Pawlowic Lab at the University of Dundee). For microscopy 0.1 g of fecal material was resuspended in 10 ml PBS. 100 microliters of diluted fecal material was incubated with 15 microliters Cryptosporidium FITC Stain (CellLabs) and incubated at 37 °C for 15 minutes. Samples were then mounted on a grided slide and counted using a fluorescent microscope. For qPCR, fecal samples were continuously stored in 4°C and transported to the University of Dundee. DNA was extracted from 100mg of fecal material (unless otherwise noted) using the Zymo Quick-DNA Fecal/Soil Microbe Miniprep Kit (Cambridge Bioscience, catalog #D6010). Once material was suspended in Bashing Bead Buffer we modified the protocol slightly by adding 5 freeze/thaw cycles.(32) DNA was stored in 4°C to await qPCR.
For the standard curve, known amounts of wild-type oocysts were added to 100 mg of uninfected murine fecal sample and DNA was extracted using the protocol detailed above. We […]

[4] = CHIlogD; type: physicochemical; settings: pH 7.4
[5] = target: T1, 5-HT transporter (h) (Homo sapiens, UniProt P31645); experiment: SafetyScreen44 panel: 5-HT transporter; type: binding
T1 construct: Eurofins Cerep
Description: As previously described.(31)
Table S2. ADME properties and in vitro assessment of toxicity/off-target effects for DDD489 and […]
Data are from a single biological replicate. (A) In vitro ADME properties. FaSSIF is Fasted State Simulated Intestinal Fluid Solubility. MDCK-MDR1 is a Madin-Darby canine kidney cell line transfected with the MDR1 gene, encoding for the efflux protein, P-glycoprotein (P-gp). Papp is apparent permeability, measured in the presence of P-gp inhibitor, GF120918. Efflux ratio is calculated as the ratio of Papp B-A/A-B. CHIlogD is chromatographic hydrophobicity index logD, measured at pH 7.4. clogP is calculated logP, determined by […]
Heps Cli is liver hepatocyte intrinsic clearance,
PPB is plasma protein binding.
Data quoted is percent bound. M=mouse, r=rat, d=dog, b=bovine, h=human. (B) In vitro toxicity assays. Cyp450
IC50 is cytochrome p450 enzyme inhibition. Mini-Ames was conducted in the presence and absence of S9 mix in four strains of Salmonella typhimurium. hERG IC50 is human ether-a-go-go related gene inhibition, measured using manual patch-clamp technique. (C) Mitochondrial toxicity assay data. (D) In a safety p anel of receptors and […]

T1 sequence (P31645 whole entry): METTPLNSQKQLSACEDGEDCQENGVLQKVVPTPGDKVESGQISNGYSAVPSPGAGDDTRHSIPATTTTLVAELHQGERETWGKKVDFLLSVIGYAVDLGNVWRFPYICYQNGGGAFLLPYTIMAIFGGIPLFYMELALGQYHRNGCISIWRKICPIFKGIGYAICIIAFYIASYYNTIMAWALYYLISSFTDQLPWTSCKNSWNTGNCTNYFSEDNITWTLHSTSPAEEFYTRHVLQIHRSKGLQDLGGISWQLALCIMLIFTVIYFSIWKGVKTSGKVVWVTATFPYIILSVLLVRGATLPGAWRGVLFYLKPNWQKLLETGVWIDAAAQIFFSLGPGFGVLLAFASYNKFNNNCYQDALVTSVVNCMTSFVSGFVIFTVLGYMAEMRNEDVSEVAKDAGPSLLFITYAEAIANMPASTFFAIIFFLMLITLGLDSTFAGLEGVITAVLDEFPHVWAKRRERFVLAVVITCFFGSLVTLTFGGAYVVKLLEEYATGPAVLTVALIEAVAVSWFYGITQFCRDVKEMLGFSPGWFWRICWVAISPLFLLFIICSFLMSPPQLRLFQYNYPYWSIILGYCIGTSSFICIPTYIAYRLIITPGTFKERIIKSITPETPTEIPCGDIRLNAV

Which results are given for O=C(NCC1(O)CCCCC1)c1cc(=O)c2cc(O)ccc2o1 [DDD508]?
EC50 [1]: > 1000 nM; solubility at 24 h [2]: 184 µM (≈ 58.4 µg/mL); calves receiving treatment that shed Cryptosporidium after day 16 PI [3]: 4/7; Cryptosporidium shedding [3]: did not shed any detectable amount of Cryptosporidium; fecal scores [3]: normal to mild range; chromatographic logD [4]: 1

For Nc1nc2c(c(C(F)(F)F)n1)C(=O)N(CC1CCCC(C(F)(F)F)C1)C2 (stereo not shown) [DDD489], which EC50 [1] is on record?
Its EC50 is 978 nM.

What about the solubility at 24 h [2] of the same compound?
The solubility at 24 h was 21 µM (≈ 8.03 µg/mL).

What about the inhibition at 10 µM [5] of the same compound?
Its inhibition at 10 µM is 62%.

And the “calves receiving treatment that shed Cryptosporidium after day 16 PI” value [3]?
The value was 3/7.

And the Cryptosporidium shedding [3]?
The Cryptosporidium shedding was “did not shed any detectable amount of Cryptosporidium”.

What about the fecal scores [3] of the same compound?
Its fecal scores is “normal to mild range”.

What about the chromatographic logD [4] of the same compound?
Its chromatographic logD is 2.8.
